Where “and” joins values, the source holds several entries; their conditions need not be identical. Equal entries are not always repeated.
Columns and labels:
PctC-LBDF147Y = biological target: T1, PctC-LBDF147Y (Pseudomonas aeruginosa, UniProt Q9HW93, F147Y); assay: biochemical; type: binding; conditions: 700 μM DPD/AI-2 into 70 μM PctC-LBD F147Y
T1 construct: the dCACHE-type LBDs of PctB and PctC; His6 (N, cleaved yes); made in house; host or cells: E. coli BL21(DE3) (pET-28a derivative)

KinD = biological target: T2, KinD (Bacillus subtilis, UniProt O31671); assay: in vitro kinase assay, KinD autophosphorylation (LC-MS/MS); type: biochemical, B. subtilis; conditions: 100 μM ATP, 30 min, 30 °C
T2 construct: The genes encoding full-length KinD and rpHK1S-Z16 were cloned with a C-terminal His6 tag into pHSe5; made in house; host or cells: E. coli BL21(DE3) ΔluxS (pHSe5), membrane fractions
T2 sequence (O31671 whole entry): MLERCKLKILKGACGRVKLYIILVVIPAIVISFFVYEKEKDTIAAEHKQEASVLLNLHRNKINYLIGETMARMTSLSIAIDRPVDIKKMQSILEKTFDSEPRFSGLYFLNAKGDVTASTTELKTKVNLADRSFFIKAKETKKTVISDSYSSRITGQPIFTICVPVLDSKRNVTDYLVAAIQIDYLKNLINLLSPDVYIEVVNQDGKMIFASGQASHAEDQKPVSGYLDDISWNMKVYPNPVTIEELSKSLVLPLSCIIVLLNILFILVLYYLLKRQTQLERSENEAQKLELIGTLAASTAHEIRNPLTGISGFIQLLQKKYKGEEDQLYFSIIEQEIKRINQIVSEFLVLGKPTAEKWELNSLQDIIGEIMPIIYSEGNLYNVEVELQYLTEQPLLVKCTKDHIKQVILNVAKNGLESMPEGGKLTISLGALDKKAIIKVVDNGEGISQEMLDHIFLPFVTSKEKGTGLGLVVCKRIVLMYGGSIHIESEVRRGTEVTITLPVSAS
Method: Twenty micrograms of membrane fractions containing KinD was preincubated in a 50-μl reaction system containing 50 mM Tris-HCl (pH 7.8), 2 mM DTT, 25 mM NaCl, 25 mM KCl, 5 mM MgCl2 for 10 min at 30 °C. […] A control experiment was performed without ATP to check the initial phosphorylation state of KinD. After 30 min incubation at 30 °C, products were resolved by SDS-PAGE, and the gel bands corresponding to KinD were excised and used for detection and quantification of phosphorylation by nano-LC-MS/MS.
Gel slices excised from SDS-PAGE gels were destained with three washes in 100 μl of 100 mM ammonium bicarbonate in 50% acetonitrile at 37 °C for 15 min. Destained gel pieces were dried in a SpeedVac (Thermo Fisher Scientific) for 15 min. 10 mM DTT in 25 mM ammonium bicarbonate was added to cover the gel pieces and incubated at 56 °C for 1 h. […] The dried peptide samples were resolubilized in 0.1% formic acid and analyzed in C18 reversed-phase column connected to an EASY-nLC 1000 interfaced via a Nanospray Flex ion source to an Orbitrap Fusion Tribrid mass spectrometer (Thermo Fisher Scientific). […] Protein identification and quantification were performed using Mascot Daemon version 2.5.1 (Matrix Science, Boston, USA) considering the specific modifications.

T1 sequence (Q9HW93 32-279 F147Y): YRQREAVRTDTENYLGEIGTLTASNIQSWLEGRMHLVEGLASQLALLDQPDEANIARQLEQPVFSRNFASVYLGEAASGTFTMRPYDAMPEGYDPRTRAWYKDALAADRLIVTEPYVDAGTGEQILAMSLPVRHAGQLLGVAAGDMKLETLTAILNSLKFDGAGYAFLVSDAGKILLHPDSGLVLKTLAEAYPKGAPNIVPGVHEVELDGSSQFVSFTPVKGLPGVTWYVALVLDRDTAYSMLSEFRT

Q: How did the Kd (PctC-LBDF147Y) turn out when CC(=O)C(=O)C(O)CO (stereo not drawn) [DPD/AI-2, 4,5-dihydroxy-2,3-pentanedione] was run?
A: The Kd was 240 nM and 170 nM and 210 nM.

Q: And the “Phosphorylation level (%) of KinD” value (KinD; 10 μM DPD/AI-2)?
A: The value was 27.45% and 24.59% and 21.92% and 23.68%.

Q: What about the “Phosphorylation level (%) of KinD” value (KinD; 50 μM DPD/AI-2) of the same compound?
A: Its value is 49.23% and 54.72% and 52.70% and 57.14%.

Source: publication PMC7584622, “Sensing of autoinducer-2 by functionally distinct receptors in prokaryotes” (Nature Communications, 2020)
